PMC13088243, “Quantifying Protein Homodimer Affinities and the Effect of Molecular Glues and Interface Residues Using Native Mass Spectrometry” (Journal of the American Chemical Society, 2026)
Values joined by “and” are separate entries in the source; they are usually repeats but may differ in a detail not shown here. Equal values may be shown once. Read-outs that look alike come from different tables or passages of the source.

B1: Tryparedoxin (protein)
chain: MSGLAKYLPGATNLLSKSGEVSLGSLVGKTVFLYFSASWCPPCRGFTPVLAEFYEKHHVAKNFEVVLISWDENESDFHDYYGKMPWLALPFDQRSTVSELGKTFGVESIPTLITINADTGAIIGTQARTRVIEDPDGANFPWPN

Tests used:
Tpx WT [1] = biological target: T1, Tpx WT (Trypanosoma brucei brucei, UniProt O77404); parameters: method as in Schwegler et al., bioRxiv 2025; settings: Tpx WT with molecular glue; previous dilution ITC; ref Schwegler et al., bioRxiv 2025; read-out: K D,ITC of Tpx homodimer; cited from earlier work
T1 sequence (O77404 1-144): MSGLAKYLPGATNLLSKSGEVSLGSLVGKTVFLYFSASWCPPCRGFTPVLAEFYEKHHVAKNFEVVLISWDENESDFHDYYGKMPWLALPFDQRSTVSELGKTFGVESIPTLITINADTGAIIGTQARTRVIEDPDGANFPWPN

Tpx WT [2] = biological target: T1, Tpx WT; experiment: biochemical; type: binding; settings: for rD,LILBID @ 1100 µm / rD,solution: Tpx WT with or without molecular glue; for rD,LILBID @ 1100 µm: from linear fits of dissociation plots; for rD,solution: from rD,LILBID with calibration factor f1100
Tpx W39A = Tpx W39A (Trypanosoma brucei brucei, UniProt O77404, W39A); experiment: biochemical; type: binding
Tpx K102E [3] = biological target: T2, Tpx K102E (Trypanosoma brucei brucei, UniProt O77404, K102E); parameters: method as in Schwegler et al., bioRxiv 2025; settings: Tpx K102E with molecular glue; previous dilution ITC; ref Schwegler et al., bioRxiv 2025; read-out: K D,ITC of Tpx homodimer; cited from earlier work
Tpx K102A = Tpx K102A (Trypanosoma brucei brucei, UniProt O77404, K102A); experiment: biochemical; type: binding
Tpx K102E [4] = biological target: T2, Tpx K102E; experiment: biochemical; type: binding
BSA (Bos taurus) = BSA (Bos taurus) (UniProt P02769); settings: cited from earlier work
Tryparedoxin = biological target: B1; experiment: qLILBID-MS
qLILBID-MS = biological target: the molecule itself; experiment: qLILBID-MS

Chain of Tpx K102A (O77404 whole entry K102A): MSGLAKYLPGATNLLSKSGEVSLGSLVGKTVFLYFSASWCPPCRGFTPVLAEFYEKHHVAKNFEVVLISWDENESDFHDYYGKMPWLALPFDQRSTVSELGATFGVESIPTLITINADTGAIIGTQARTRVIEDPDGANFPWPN
T2 sequence (O77404 whole entry K102E): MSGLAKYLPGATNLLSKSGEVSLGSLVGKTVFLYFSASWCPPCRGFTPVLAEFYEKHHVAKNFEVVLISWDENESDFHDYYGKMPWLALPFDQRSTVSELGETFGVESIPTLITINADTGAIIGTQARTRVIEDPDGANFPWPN
Chain of Tpx W39A (O77404 whole entry W39A): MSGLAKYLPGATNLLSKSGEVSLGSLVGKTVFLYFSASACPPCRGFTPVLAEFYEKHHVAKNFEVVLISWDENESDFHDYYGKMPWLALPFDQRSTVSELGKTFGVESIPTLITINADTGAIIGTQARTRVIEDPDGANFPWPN

Molecule | Kd (Tpx WT [1]) [µM] | Kd (Tpx WT [2]) [µM] | rD,LILBID @ 1100 µm (Tpx WT [2]) | rD,solution (Tpx WT [2]) | Kd (Tryparedoxin) [µM] | further results
O=c1[nH]c(CCl)nc2scc(-c3ccccc3)c12 [CPT] | 6 ± 2.2 | 16 ± 9 | 0.871 ± 0.033 | 0.568 ± 0.088 |  | 
O=c1[nH]c(CCl)nc2scc(-c3ccc(C(F)(F)F)cc3)c12 [CtFT] | 410 ± 56 | 360 ± 110 | 0.983 ± 0.004 | 0.932 ± 0.017 |  | 
O=c1[nH]c(CCl)nc2scc(-c3cccc(F)c3)c12 [meta-CFT] | 3.7 ± 1.5 | 6 ± 5 | 0.809 ± 0.058 | 0.420 ± 0.124 |  | 
O=c1[nH]c(CCl)nc2scc(-c3ccccc3F)c12 [ortho-CFT] | 32 ± 7 |  | 0.897 ± 0.024 | 0.642 ± 0.072 |  | 
O=c1[nH]c(CCl)nc2scc(-c3ccc(F)cc3)c12 [para-CFT, 2-(chloromethyl)-5-(4-fluorophenyl)thieno[2,3-d]pyrimidin-4(3H)-one] | 5.3 ± 1.9 | 5 ± 4 | 0.798 ± 0.048 | 0.398 ± 0.099 |  | Kd (Tpx W39A): 300 ± 110 µM; rD,LILBID @ 1100 µm (Tpx W39A; Tpx W39A with or without para-CFT): 0.980 ± 0.006; rD,solution (Tpx W39A; Tpx W39A with or without para-CFT, from rD,LILBID with f1100): 0.921 ± 0.023; Kd (Tpx K102E [3]): 83 ± 32 µM; Kd (Tpx K102A; K D,LILBID of Tpx homodimer, Tpx K102A with para-CFT or none, ew 1100 μm, triplicate): 37 µM and 36 µM; rD,LILBID @ 1100 µm (Tpx K102A; Tpx K102A with or without para-CFT): 0.914 ± 0.027; rD,solution (Tpx K102A; Tpx K102A with or without para-CFT, from rD,LILBID with f1100): 0.692 ± 0.084; Kd (Tpx K102E [4]): 70 ± 16 µM; rD,LILBID @ 1100 µm (Tpx K102E [4]; Tpx K102E with or without para-CFT): 0.942 ± 0.008; rD,solution (Tpx K102E [4]; Tpx K102E with or without para-CFT, from rD,LILBID with f1100): 0.782 ± 0.029
BSA (from UniProt P02769) |  |  |  |  |  | Kd (BSA (Bos taurus)): 10 µM
Tryparedoxin (protein, ortho-CFT covalently bound to C40) MSGLAKYLPGATNLLSKSGEVSLGSLVGKTVFLYFSASWCPPCRGFTPVLAEFYEKHHVAKNFEVVLISWDENESDFHDYYGKMPWLALPFDQRSTVSELGKTFGVESIPTLITINADTGAIIGTQARTRVIEDPDGANFPWPN |  |  |  |  | 26 | 
Tryparedoxin (protein, para-CFT covalently bound to C40) MSGLAKYLPGATNLLSKSGEVSLGSLVGKTVFLYFSASWCPPCRGFTPVLAEFYEKHHVAKNFEVVLISWDENESDFHDYYGKMPWLALPFDQRSTVSELGKTFGVESIPTLITINADTGAIIGTQARTRVIEDPDGANFPWPN |  |  |  |  | 5 | 
Tryparedoxin (protein, CtFT covalently bound to C40) MSGLAKYLPGATNLLSKSGEVSLGSLVGKTVFLYFSASWCPPCRGFTPVLAEFYEKHHVAKNFEVVLISWDENESDFHDYYGKMPWLALPFDQRSTVSELGKTFGVESIPTLITINADTGAIIGTQARTRVIEDPDGANFPWPN |  |  |  |  | 360 | 
B1 |  |  |  |  |  | Kd (qLILBID-MS): > 500 µM
Tryparedoxin (protein, meta-CFT covalently bound to C40) MSGLAKYLPGATNLLSKSGEVSLGSLVGKTVFLYFSASWCPPCRGFTPVLAEFYEKHHVAKNFEVVLISWDENESDFHDYYGKMPWLALPFDQRSTVSELGKTFGVESIPTLITINADTGAIIGTQARTRVIEDPDGANFPWPN |  |  |  |  | 6 | 
Tryparedoxin (protein, CPT covalently bound to C40) MSGLAKYLPGATNLLSKSGEVSLGSLVGKTVFLYFSASWCPPCRGFTPVLAEFYEKHHVAKNFEVVLISWDENESDFHDYYGKMPWLALPFDQRSTVSELGKTFGVESIPTLITINADTGAIIGTQARTRVIEDPDGANFPWPN |  |  |  |  | 16 | 
